We go through 25 compounds from patent US10076519B2 (CYTOKINETICS, INC., priority 2010, dated 2018).

The first assay concerns rabbit skeletal myofibrils (fast skeletal myofibrils). The assay can be described thus: Activation of fast skeletal myofibrils (PUMA assay, PK/LDH-coupled ATPase at pCa25). Type of assay: biochemical. The following applies: AC1.4 determined according to the procedure of Example 39; reported as class symbols. The essentials: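 ATPase activity of Triton-washed rabbit skeletal myofibrils, roughly 90% fast fibres, tracked by NADH loss at 340 nm through a PK/LDH-coupled ADP-regenerating system. Calcium set to 25% of maximal activity (pCa25), in PIPES 12 mM pH 6.8 with 2 mM MgCl2 and 1 mM DTT; AC1.4 reported.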
With `CC(C)(O)c1n[nH]c2ccc(-c3ccc(NCC(C)(C)c4ccc(F)cc4)nn3)cc12` [2-[5-(6-{[2-(4-fluorophenyl)-2-methylpropyl]amino}pyridazin-3-yl)-1H-indazol-3-yl]propan-2-ol], the “Mean AC1.4” value is on record as “B (B=1-10 uM)”.

The same assay, now with this note: median AC1.4 class, procedure of Example 39.
`CC(C)(Nc1ccc(-c2ncc(C(N)=O)s2)nn1)c1cccc(OC(F)F)n1` [2-[6-({1-[6-(difluoromethoxy)(2-pyridyl)]-isopropyl}amino)pyridazin-3-yl]-1,3-thiazole-5-carboxamide]: the “Mean AC1.4” value is given as “B (B=1-10 uM)”.

With `O=C(c1cnc(-c2ccc(NCC3(c4ncccc4F)CCC3)nn2)s1)N1CCCC(O)C1` (stereo not shown) [2-[6-({[(3-fluoro(2-pyridyl))cyclobutyl]methyl}ami-no)pyridazin-3-yl](1,3-thiazol-5-yl) 3-hydroxypiperidyl ketone], the “Mean AC1.4” value is given as “C (C=10-20 uM)”. The same measure, in the same setting: then `O=C(c1cnc(-c2ccc(NCC3(c4ncccc4F)CCC3)nn2)s1)N1CCC(O)C1` (stereo not shown) [2-[6-({[(3-fluoro(2-pyridyl))cyclobutyl]methyl}ami-no)pyridazin-3-yl](1,3-thiazol-5-yl) 3-hydroxypyrrolidinyl ketone], with “C (C=10-20 uM)”; and `O=C(c1cnc(-c2ccc(NCC3(c4ncccc4F)CCC3)nn2)s1)N1CCC(O)CC1` [2-[6-({[(3-fluoro(2-pyridyl))cyclobutyl]methyl}ami-no)pyridazin-3-yl](1,3-thiazol-5-yl) 4-hydroxypiperidyl ketone], with “C (C=10-20 uM)”. The same measure, in the same setting: in the case of `O=C(c1cnc(-c2ccc(NCC3(c4ncccc4F)CCC3)nn2)s1)N1CCOCC1` [2-[6-({[(3-fluoro(2-pyridyl))cyclobutyl]methyl}ami-no)pyridazin-3-yl](1,3-thiazol-5-yl) morpholin-4-yl ketone] it was “C (C=10-20 uM)”; in that of `Cn1cc(C(N)=O)nc1-c1ccc(NCC2(c3ncccc3F)CCC2)nn1` [2-[6-({[(3-fluoro(2-pyridyl))cyclobutyl]methyl}ami-no)pyridazin-3-yl]-1-methylimidazole-4-carboxamide], “D (D=>20 uM)”; in that of `Cn1c(C(N)=O)cnc1-c1ccc(NCC2(c3ncccc3F)CCC2)nn1` [2-[6-({[(3-fluoro(2-pyridyl))cyclobutyl]methyl}ami-no)pyridazin-3-yl]-1-methylimidazole-5-carboxamide], “B (B=1-10 uM)”. The same measure, in the same setting: in the case of `N#Cc1sc(-c2ccc(NCC3(c4ncccc4F)CCC3)nn2)nc1O` [2-[6-({[(3-fluoro(2-pyridyl))cyclobutyl]methyl}ami-no)pyridazin-3-yl]-4-hydroxy-1,3-thiazole-5-carbonitrile] it was “D (D=>20 uM)”.

As for `NC(=O)c1sc(-c2ccc(NCC3(c4ncccc4F)CCC3)nn2)nc1O` [2-[6-({[(3-fluoro(2-pyridyl))cyclobutyl]methyl}ami-no)pyridazin-3-yl]-4-hydroxy-1,3-thiazole-5-carboxamide], the “Mean AC1.4” value is “B (B=1-10 uM)”.

On to `COc1nc(-c2ccc(NCC3(c4ncccc4F)CCC3)nn2)sc1C(N)=O` [2-[6-({[(3-fluoro(2-pyridyl))cyclobutyl]methyl}ami-no)pyridazin-3-yl]-4-methoxy-1,3-thiazole-5-carboxamide], for which the “Mean AC1.4” value is reported as “A (A=<1 uM)”. Still for that read-out and setting: then `COc1nc(-c2ccc(NCC3(c4ncccc4F)CCC3)nn2)sc1C(=O)O` [2-[6-({[(3-fluoro(2-pyridyl))cyclobutyl]methyl}ami-no)pyridazin-3-yl]-4-methoxy-1,3-thiazole-5-carboxylic acid], with “C (C=10-20 uM)”.

In the case of `Cc1nc(-c2ccc(NCC3(c4ncccc4F)CCC3)nn2)sc1C(N)=O` [2-[6-({[(3-fluoro(2-pyridyl))cyclobutyl]methyl}ami-no)pyridazin-3-yl]-4-methyl-1,3-thiazole-5-carboxamide], the “Mean AC1.4” value is reported as “B (B=1-10 uM)”. The same measure, in the same setting: in the case of `CS(=O)(=O)N1Cc2nc(-c3ccc(NCC4(c5ncccc5F)CCC4)nn3)sc2C1` [2-[6-({[(3-fluoro(2-pyridyl))cyclobutyl]methyl}ami-no)pyridazin-3-yl]-5-(methylsulfonyl)-3-pyrrolino[3,4-d]1,3-thiazole] it was “D (D=>20 uM)”. On the same count and under the same terms, in the case of `N#Cc1cnc(-c2ccc(NCC3(c4ncccc4F)CCC3)nn2)s1` [2-[6-({[(3-fluoro-2-pyridyl)cyclobutyl]methyl}ami-no)pyridazin-3-yl]-1,3-thiazole-5-carbonitrile] it was “B (B=1-10 uM)”.

Regarding `O=C(O)c1cnc(-c2ccc(NCC3(c4ncccc4F)CCC3)nn2)s1` [2-[6-({[(3-fluoro-2-pyridyl)cyclobutyl]methyl}ami-no)pyridazin-3-yl]-1,3-thiazole-5-carboxylic acid], the “Mean AC1.4” value was “C (C=10-20 uM)”. For the compound `NS(=O)(=O)c1cnc(-c2ccc(NCC3(c4ncccc4F)CCC3)nn2)s1` [2-[6-({[(3-fluoro-2-pyridyl)cyclobutyl]methyl}ami-no)pyridazin-3-yl]-1,3-thiazole-5-sulfonamide], the “Mean AC1.4” value is on record as “B (B=1-10 uM)”. Consider `Oc1ccc2nc(-c3ccc(NCC4(c5ncccc5F)CCC4)nn3)sc2n1` [2-[6-({[(3-fluoro-2-pyridyl)cyclobutyl]methyl}ami-no)pyridazin-3-yl]-1,3-thiazolino[5,4-b]pyridin-5-ol], for which the “Mean AC1.4” value is listed as “B (B=1-10 uM)”.

Turning to `NC(=O)c1ccc2nc(-c3ccc(NCC4(c5ncccc5F)CCC4)nn3)sc2n1` [2-[6-({[(3-fluoro-2-pyridyl)cyclobutyl]methyl}ami-no)pyridazin-3-yl]-1,3-thiazolino[5,4-b]pyridine-5-carboxamide], the “Mean AC1.4” value is on record as “D (D=>20 uM)”.

The assay is the same for the next values; noted with them: median AC1.4 reported as class; procedure of Example 39.
For `CC(C)(Nc1ccc(-c2ncc(CC(N)=O)s2)nn1)c1ncccc1Cl` [2-[2-(6-{[1-(3-chloro(2-pyridyl))-isopropyl]amino}pyridazin-3-yl)-1,3-thiazol-5-yl]acetamide], the “Mean AC1.4” value is on record as “D (D=>20 uM)”. Still for that read-out and setting: then `CC(C)(CNc1ccc(-c2ncc(CC(N)=O)s2)nn1)c1ncccc1Cl` [2-[2-(6-{[2-(3-chloro(2-pyridyl))-2-methylpropyl]amino}pyridazin-3-yl)-1,3-thiazol-5-yl]acetamide], with “B (B=1-10 uM)”; and `CS(=O)(=O)N1CCc2nc(-c3ccc(NCC4(c5ncccc5F)CCC4)nn3)sc2C1` [2-[6-({[(3-fluoro(2-pyridyl))cyclobutyl]methyl}ami-no)pyridazin-3-yl]-5-(methylsulfonyl)-4,5,6,7-tetrahydro-1,3-thiazolo[5,4-c]pyridine], with “D (D=>20 uM)”.

In the case of `Cc1cc(NCC2(c3ncccc3F)CCC2)nnc1-c1ncc(C(N)=O)s1` [2-[6-({[(3-fluoro(2-pyridyl))cyclobutyl]methyl}amino)-4-methylpyridazin-3-yl]-1,3-thiazole-5-carboxamide], the “Mean AC1.4” value is reported as “A (A=<1 uM)”. Consider `NC(=O)N1CCc2nc(-c3ccc(NCC4(c5ncccc5F)CCC4)nn3)sc2C1` [2-[6-({[(3-fluoro-2-pyridyl)cyclobutyl]methyl}ami-no)pyridazin-3-yl]-4,5,6,7-tetrahydro-1,3-thiazolo[5,4-c]pyridine-5-carboxamide], for which the “Mean AC1.4” value is given as “D (D=>20 uM)”. The same measure, in the same setting: in the case of `NC(=O)C1CCc2sc(-c3ccc(NCC4(c5ncccc5F)CCC4)nn3)nc21` (stereo not shown) [2-[6-({[(3-fluoro-2-pyridyl)cyclobutyl]methyl}ami-no)pyridazin-3-yl]-4,5,6-trihydrocyclopenta[1,2-d]1,3-thiazole-4-carboxamide] it was “D (D=>20 uM)”.
